In patent US20210023030A1 (priority 2018, published 2021):

Experiments:
[1] = biological target: hydroxy-carboxylic acid receptor 2 (HCA2, GPR109A) (Mus musculus, UniProt Q9EP66); conditions: in vivo; cited from earlier work
histone acetylation = conditions: cited from earlier work
NLRP3 inflammasome = NLRP3 inflammasome (Homo sapiens, UniProt Q96P20); conditions: cited from earlier work
[2] = system: primary human intestinal organoids; format: cell-based; conditions: TNFα 40 ng/mL, 10 μM, 18 hours
Method: (§1) To measure the effect of (R)-3-HB on inflammation of primary human intestinal organoids, healthy large intestine samples of a donor were cultured for 8 weeks in vitro prior to experiments. Method as used in Hannan et al., Stem Cell Reports. Vol. 1, 293-306 Oct. 15, 2013.
1) To induce inflammation, organoids were treated with TNFα (40 ng/mL) alone or in combination with butyrate (10 μM), (R)-3-HB (10 μM), or butyrate and (R)-3-HB for 18 hours. Subsequently, cells were lysed and RNA was isolated for cDNA synthesis and measurement of mRNA expression levels of inflammation factors, NF-κB and TNFα, by qPCR.

[3] = system: primary human intestinal organoids; format: cell-based
Method: as §1
2) To induce inflammation, organoids were treated with TNF-α (40 ng/mL) alone or in combination with (R)-3-HB (sodium salts at 10 μM) for 18 hours. Subsequently, cells were lysed and RNA was isolated for cDNA synthesis and mRNA expression levels of a panel of inflammation factors was measured by qPCR.

[4] = system: primary human intestinal organoids; format: cell-based; conditions: TNF-α 60 ng/mL, 24 hours
Method: 3) The effect of (R)-3-HB and the related SCFA butyrate on the inflammatory response exerted by primary human intestinal organoids upon co-incubation with TNF-α as inflammatory stimulus was measured. Primary human intestinal organoids were cultured for 8 weeks prior to experiments as described in Hannan et al. (2013) Stem Cell Reports.
To induce inflammation, organoids were treated with 60 ng/mL TNF-α alone or in combination with different concentrations of the sodium salts of (R)-3-HB or butyrate for 24 hours. Subsequently, cells were lysed and RNA was isolated using the RNeasy mini kit (Qiagen Ltd, Germany) for synthesis of cDNA. mRNA expression levels of IL-23 was measured by qPCR using the SensiMix SYBR low-ROX kit (Bioline, UK).
Values were normalized versus untreated control and graphs show the difference of mRNA levels measured in organoids treated with TNF-α alone (set as 0) and those treated with TNF-α and butyrate or (R)-3-HB.

HCA2 receptor (gpr109A) = HCA2 receptor (gpr109A) (Mus musculus, UniProt Q9EP66); conditions: read-out: EC50 of binding to HCA2 receptor; cited from earlier work
[5] = TNF-α 40 ng/mL, sodium salt 10 μM, 18 hours

HCA2 receptor (gpr109A), sequence (Q9EP66 whole entry): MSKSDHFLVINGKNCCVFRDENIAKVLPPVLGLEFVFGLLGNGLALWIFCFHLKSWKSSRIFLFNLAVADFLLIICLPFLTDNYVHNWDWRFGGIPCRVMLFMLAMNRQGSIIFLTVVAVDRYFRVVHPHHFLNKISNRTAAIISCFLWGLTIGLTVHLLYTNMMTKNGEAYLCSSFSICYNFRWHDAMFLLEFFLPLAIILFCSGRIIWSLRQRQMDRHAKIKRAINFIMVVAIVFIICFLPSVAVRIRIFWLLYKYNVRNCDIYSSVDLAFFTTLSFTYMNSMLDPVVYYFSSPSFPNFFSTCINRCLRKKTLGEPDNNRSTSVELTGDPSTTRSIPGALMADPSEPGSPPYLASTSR
hydroxy-carboxylic acid receptor 2 (HCA2, GPR109A), sequence (Q9EP66 whole entry): as above
NLRP3 inflammasome, sequence (Q96P20 whole entry): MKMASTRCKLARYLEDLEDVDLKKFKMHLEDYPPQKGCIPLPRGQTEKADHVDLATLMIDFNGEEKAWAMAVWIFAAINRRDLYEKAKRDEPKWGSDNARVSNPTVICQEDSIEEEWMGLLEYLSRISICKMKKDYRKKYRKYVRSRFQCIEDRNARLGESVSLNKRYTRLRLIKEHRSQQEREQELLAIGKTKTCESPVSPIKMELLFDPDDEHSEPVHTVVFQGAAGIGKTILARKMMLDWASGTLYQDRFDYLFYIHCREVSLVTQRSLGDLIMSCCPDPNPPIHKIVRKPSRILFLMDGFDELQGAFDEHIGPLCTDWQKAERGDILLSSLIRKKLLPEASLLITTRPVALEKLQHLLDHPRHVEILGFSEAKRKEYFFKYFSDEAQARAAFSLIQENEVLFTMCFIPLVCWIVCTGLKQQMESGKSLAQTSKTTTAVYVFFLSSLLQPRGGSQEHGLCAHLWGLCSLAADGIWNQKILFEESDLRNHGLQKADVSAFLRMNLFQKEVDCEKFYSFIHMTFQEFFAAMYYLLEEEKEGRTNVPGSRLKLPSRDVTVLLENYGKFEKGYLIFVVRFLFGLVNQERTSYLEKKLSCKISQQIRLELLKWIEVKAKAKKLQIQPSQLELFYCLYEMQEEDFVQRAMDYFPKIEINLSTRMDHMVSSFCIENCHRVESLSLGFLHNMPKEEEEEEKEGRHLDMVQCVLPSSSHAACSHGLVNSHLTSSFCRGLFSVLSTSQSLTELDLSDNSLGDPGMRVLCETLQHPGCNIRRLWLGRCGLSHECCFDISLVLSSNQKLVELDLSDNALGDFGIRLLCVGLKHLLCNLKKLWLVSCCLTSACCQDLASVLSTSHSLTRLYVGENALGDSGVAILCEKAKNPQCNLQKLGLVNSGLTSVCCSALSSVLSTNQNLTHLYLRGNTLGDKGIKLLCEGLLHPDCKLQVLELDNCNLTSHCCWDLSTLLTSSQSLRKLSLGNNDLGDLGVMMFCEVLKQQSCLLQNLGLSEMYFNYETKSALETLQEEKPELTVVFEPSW

SMILES	concentration associated with neuroprotection [1]	concentration that increases histone acetylation in a dose dependent manner (histone acetylation) [mM]	concentration that reduced NLRP3 inflammasome activity (NLRP3 inflammasome) [mM]	NF-κB mRNA expression [2]	TNF-α mRNA expression [2]	IL-1β mRNA expression vs TNF-α alone [3, 5]	IL-6 mRNA expression vs TNF-α alone [3, 5]	IL-10 mRNA expression vs TNF-α alone [3, 5]	IL-23 mRNA expression vs TNF-α alone [3, 5]	NF-κβ mRNA expression vs TNF-α alone [3, 5]	TGF-β1 mRNA expression vs TNF-α alone [3, 5]	TNF-α mRNA expression vs TNF-α alone [3, 5]	effect on pro-inflammatory regulators of IBD compared with butyrate ([3]; data not shown)	effect on protective regulators of intestinal inflammation compared with butyrate ([3]; data not shown)	impact on IL-23 expression compared with butyrate ([4]; 10-100 μM)	concentrations effective at reducing expression of IL-23 ([4]; sodium salt) [µM]	EC50 (HCA2 receptor (gpr109A)) [µM]
CC(O)CC(=O)O (centres unmarked) [3-HB, 3-hydroxybutyric acid]	600-1,000 μM	1 to 2	2 to 10														
C[C@@H](O)CC(=O)O [(R)-3-HB, (R)-3-hydroxybutyrate]				decreased	decreased	decreased	decreased	increased	decreased	decreased	increased	decreased	greater reducing effect than butyrate	greater inducing effect	greater reducing impact	10 to 100	318
